Here are results for 21 molecules from publication PMC7665585, “Antidepressive effect of an inward rectifier K^+ channel blocker peptide, tertiapin-RQ” (PLoS ONE, 2020).

Bridge positions count the residues as written; N and C are the ends. Ends that are not written are not given here. Peptide text beside a SMILES is read from it.

The target in one assay is T1, rat ROMK (Rattus norvegicus, UniProt P35560).
T1 construct: expressed in transfected cells; host or cells: 293T cell line 208-4 (lentiviral transduction, GFP coexpressed)
T1 sequence (P35560 1-391): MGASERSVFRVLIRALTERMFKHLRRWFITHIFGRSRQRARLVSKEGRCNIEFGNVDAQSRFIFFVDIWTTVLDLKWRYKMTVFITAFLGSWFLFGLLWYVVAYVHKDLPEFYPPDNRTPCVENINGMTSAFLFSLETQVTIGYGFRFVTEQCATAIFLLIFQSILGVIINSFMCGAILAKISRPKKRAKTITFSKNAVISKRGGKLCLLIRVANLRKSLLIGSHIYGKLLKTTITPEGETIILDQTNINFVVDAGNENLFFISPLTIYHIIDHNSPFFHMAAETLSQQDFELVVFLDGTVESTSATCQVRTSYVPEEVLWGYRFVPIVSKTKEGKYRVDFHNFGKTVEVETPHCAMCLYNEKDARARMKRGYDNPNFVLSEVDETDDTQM
In words: Whole-cell patch-clamp of ROMK currents in 208–4 cells. It counts as cell-based. Conditions: blockade at 1 μM estimated from fitted Hill curve (four parameters), whole-cell conductance, n = 3–6. The text has this:
The cDNAs for rat ROMK and mouse GIRK1, 2, and 4 were generously donated by Drs Mikio Hayashi (Kansai Medical University) and David Weaver (Vanderbilt University). The ROMK channels were stably expressed by a cell line, 208–4, which was transduced with lentiviral vectors coexpressing the channel and green fluorescent protein (GFP) as described previously. The GIRK genes, cloned in a pCMV6 plasmid (Origene Technologies Inc, Rockville, MD), were transiently expressed in 293T cells with calcium phosphate transfection. GIRK channel currents were recorded 24 h after transfection.
Cells grown on small cover glasses (3 × 18 mm) were placed in a recording chamber. Whole-cell currents were recorded in Tyrode solution using an Axopatch 200B amplifier (Axon Instruments, Foster City, CA) at 25°C. Tyrode solution contained (in mM): NaCl 140, KCl 5.4, NaH2PO4 0.33, CaCl2 2, MgCl2 1, HEPES 5, and glucose 5.5 (pH 7.4 adjusted with NaOH). High K^+ Tyrode solution (KCL 50 mM, NaCl 95 mM, and others were the same as standard Tyrode solution) was used for the recording of GIRK channels. Patch pipettes pulled from borosilicate glass (Narishige, Tokyo, Japan) were filled with an internal solution containing (in mM): K-aspartate 66, KCl 71.5, KH2PO4 1, EGTA 5, HEPES 5, and MgATP 3 (pH 7.4 adjusted with KOH). Recordings were digitized at 10 kHz, and low-pass filtered at 2 kHz. ROMK, Kir2.1, and GIRK currents were evoked with step pulses of 400 msec from -150 mV to 10 mV in 10 mV increments from a holding potential of -70 mV. Whole-cell currents were recorded 60 sec after the peptide application and those from 100 to 300 msec of the step pulses were averaged. Liquid junction potential or capacitive transient was not corrected or compensated. Whole-cell conductance was calculated as the slope of the current-voltage (I-V) relationship from -140 mV to -100 mV and normalized to the initial value (0 μM TPN), in which BaCl2-resistant current was subtracted and indicted as a percentage.
Regarding TPN 12–19 [Peptide 15], the “Activity (ROMK channel blocking activity, percentage of blockade at 1 μM)” value is “- (-, <20%)”.

On to TPN-RQ(C18S) [Peptide 48], for which the “Activity (ROMK channel blocking activity, percentage of blockade at 1 μM)” value is “- (-, <20%)”.

Take TPN 13–20 [Peptide 16]: the “Activity (ROMK channel blocking activity, percentage of blockade at 1 μM)” value is on record as “- (-, <20%)”.

On to TPN 11–18 [Peptide 14], for which the “Activity (ROMK channel blocking activity, percentage of blockade at 1 μM)” value is “- (-, <20%)”. For the molecule TPN-RQ(C14S) [Peptide 47], the “Activity (ROMK channel blocking activity, percentage of blockade at 1 μM)” value was “- (-, <20%)”.

Staying with this assay, now noted: blockade at 1 μM estimated from fitted Hill curve (four parameters), whole-cell conductance, n = 3–6, read-out: Activity (ROMK channel blocking activity, percentage of blockade at 1 μM).
Regarding `CC[C@H](C)[C@@H]1NC(=O)[C@H](C)NC(=O)[C@H](C)NC(=O)[C@H](CC(N)=O)NC(=O)[C@@H]2CSSC[C@@H](C(=O)NCC(=O)N[C@@H](CCCCN)C(=O)N[C@@H](CCCCN)C(N)=O)NC(=O)[C@H](CCCCN)NC(=O)[C@H](CCCCN)NC(=O)[C@H](Cc3c[nH]c4ccccc34)NC(=O)[C@H](CSSC[C@H](NC(=O)[C@H](CC(C)C)NC(=O)[C@H](C)N)C(=O)N[C@@H](CC(N)=O)C(=O)N2)NC(=O)[C@H](CCC(N)=O)NC(=O)[C@H](Cc2c[nH]cn2)NC(=O)[C@@H]2CCCN2C(=O)[C@H]([C@@H](C)CC)NC1=O` [Peptide 58, TPN-RQ(R7A/R8A)] (H-ALCNCNAAIIPHQCWKKCGKK-NH2; disulfide 3-14, 5-18), the inhibition at 1 µM was under 20%. On to IIPHMCWK-NH2 [Peptide 12, TPN 9–16], for which the inhibition at 1 µM was under 20%.

For the molecule “RAIIPHQK-NH2 [Peptide 24, TPN-RQ 7-13(R8A) + K]”, the inhibition at 1 µM is under 20%. Turning to `CC[C@H](C)[C@@H]1NC(=O)[C@H](CCCNC(=N)N)NC(=O)[C@H](CCCNC(=N)N)NC(=O)[C@H](CC(N)=O)NC(=O)[C@@H](NC(=O)[C@@H](N)CC(N)=O)CSSC[C@@H](C(=O)N[C@@H](Cc2c[nH]c3ccccc23)C(=O)N[C@@H](CCCCN)C(=O)N[C@@H](CCCCN)C(N)=O)NC(=O)[C@H](CCC(N)=O)NC(=O)[C@H](CCCCN)NC(=O)[C@@H]2CCCN2C(=O)[C@H]([C@@H](C)CC)NC1=O` [Peptide 40, TPN-RQ 4-17(H12K)] (H-NCNRRIIPKQCWKK-NH2; disulfide 2-11), the inhibition at 1 µM is under 20%.

Turning to RIIIPHQC-NH2 [Peptide 18, TPN-Q 7–14], the inhibition at 1 µM is under 20%. Same read-out and setting: the value for `CC[C@H](C)[C@@H]1NC(=O)[C@H](CCCNC(=N)N)NC(=O)[C@H](CCCNC(=N)N)NC(=O)[C@H](CC(N)=O)NC(=O)[C@@H](NC(=O)[C@H](CC(N)=O)NC(=O)[C@H](CO)NC(=O)[C@H](CC(C)C)NC(=O)[C@H](C)N)CSSC[C@@H](C(=O)NCC(=O)N[C@@H](CCCCN)C(=O)N[C@@H](CCCCN)C(N)=O)NC(=O)[C@H](CCCCN)NC(=O)[C@H](CCCCN)NC(=O)[C@H](Cc2c[nH]c3ccccc23)NC(=O)[C@H](CO)NC(=O)[C@H](CCC(N)=O)NC(=O)[C@H](Cc2c[nH]cn2)NC(=O)[C@@H]2CCCN2C(=O)[C@H]([C@@H](C)CC)NC1=O` [Peptide 50, TPN-RQ(C3S/C14S)] (H-ALSNCNRRIIPHQSWKKCGKK-NH2; disulfide 5-18) was under 20%; that for `CC[C@H](C)[C@@H]1NC(=O)[C@H](CCCNC(=N)N)NC(=O)[C@H](CCCNC(=N)N)NC(=O)[C@H](C)NC(=O)[C@@H]2CSSC[C@@H](C(=O)NCC(=O)N[C@@H](CCCCN)C(=O)N[C@@H](CCCCN)C(N)=O)NC(=O)[C@H](CCCCN)NC(=O)[C@H](CCCCN)NC(=O)[C@H](Cc3c[nH]c4ccccc34)NC(=O)[C@H](CSSC[C@H](NC(=O)[C@H](CC(C)C)NC(=O)[C@H](C)N)C(=O)N[C@@H](CC(N)=O)C(=O)N2)NC(=O)[C@H](CCC(N)=O)NC(=O)[C@H](Cc2c[nH]cn2)NC(=O)[C@@H]2CCCN2C(=O)[C@H]([C@@H](C)CC)NC1=O` [Peptide 57, TPN-RQ(N6A)] (H-ALCNCARRIIPHQCWKKCGKK-NH2; disulfide 3-14, 5-18) was 60 to 80%. With `CC[C@H](C)[C@@H]1NC(=O)[C@H](CCCNC(=N)N)NC(=O)[C@H](CCCNC(=N)N)NC(=O)[C@H](CC(N)=O)NC(=O)[C@@H](N)CSSC[C@@H](C(N)=O)NC(=O)[C@H](CCC(N)=O)NC(=O)[C@H](CCCCN)NC(=O)[C@@H]2CCCN2C(=O)[C@H]([C@@H](C)CC)NC1=O` [Peptide 36, TPN-RQ 5-14(H12K)] (H-CNRRIIPKQC-NH2; disulfide 1-10), the inhibition at 1 µM was under 20%. Turning to `CC[C@H](C)[C@@H]1NC(=O)[C@H](CCCNC(=N)N)NC(=O)[C@H](CCCNC(=N)N)NC(=O)[C@H](CC(N)=O)NC(=O)[C@@H]2CSSC[C@@H](C(=O)NCC(=O)N[C@@H](CCCCN)C(=O)N[C@@H](CCCCN)C(N)=O)NC(=O)[C@H](CCCCN)NC(=O)[C@H](CCCCN)NC(=O)[C@H](Cc3c[nH]c4ccccc34)NC(=O)[C@H](CSSC[C@H](NC(=O)[C@H](CC(C)C)NC(=O)[C@H](C)N)C(=O)N[C@@H](CC(N)=O)C(=O)N2)NC(=O)[C@H](CCC(N)=O)NC(=O)[C@H](Cc2c[nH]cn2)NC(=O)[C@@H]2CCCN2C(=O)[C@H](C)NC1=O` [Peptide 61, TPN-RQ(I10A)] (H-ALCNCNRRIAPHQCWKKCGKK-NH2; disulfide 3-14, 5-18), the inhibition at 1 µM was 20 to 40%. `CC[C@H](C)[C@@H]1NC(=O)[C@H](CCCNC(=N)N)NC(=O)[C@H](CCCNC(=N)N)NC(=O)[C@H](CC(N)=O)NC(=O)[C@@H]2CSSC[C@@H](C(=O)NCC(=O)N[C@@H](CCCCN)C(=O)N[C@@H](CCCCN)C(N)=O)NC(=O)[C@H](CCCCN)NC(=O)[C@H](CCCCN)NC(=O)[C@H](Cc3c[nH]c4ccccc34)NC(=O)[C@H](CSSC[C@H](NC(=O)[C@H](C)NC(=O)[C@H](C)N)C(=O)N[C@@H](CC(N)=O)C(=O)N2)NC(=O)[C@H](CCC(N)=O)NC(=O)[C@H](Cc2c[nH]cn2)NC(=O)[C@@H]2CCCN2C(=O)[C@H]([C@@H](C)CC)NC1=O` [Peptide 55, TPN-RQ(L2A)] (H-AACNCNRRIIPHQCWKKCGKK-NH2; disulfide 3-14, 5-18): the inhibition at 1 µM is 60 to 80%. Consider NRIIIPHM-NH2 [Peptide 9, TPN 6–13], for which the inhibition at 1 µM was under 20%. Take “RRIIAHQK-NH2 [Peptide 27, TPN-RQ 7-13(P11A) + K]”: the inhibition at 1 µM is under 20%. On to CNRIIIPH-NH2 [Peptide 8, TPN 5–12], for which the inhibition at 1 µM is under 20%.

As to “RRAIPHQK-NH2 [Peptide 25, TPN-RQ 7-13(I9A) + K]”, the inhibition at 1 µM was under 20%. As for `CC(C)C[C@H](NC(=O)[C@H](C)N)C(=O)N[C@H]1CSSC[C@@H]2NC(=O)[C@H](CCC(N)=O)NC(=O)[C@H](Cc3c[nH]cn3)NC(=O)[C@@H]3CCCN3C(=O)[C@H](CCCNC(=N)N)NC(=O)[C@H](CCCNC(=N)N)NC(=O)[C@H](CC(N)=O)NC(=O)[C@H](CSSC[C@@H](C(=O)NCC(=O)N[C@@H](CCCCN)C(=O)N[C@@H](CCCCN)C(N)=O)NC(=O)[C@H](CCCCN)NC(=O)[C@H](CCCCN)NC(=O)[C@H](Cc3c[nH]c4ccccc34)NC2=O)NC(=O)[C@H](CC(N)=O)NC1=O` [Peptide 53, TPN-RQ(ΔI9/ΔI10)] (H-ALCNCNRRPHQCWKKCGKK-NH2; disulfide 3-12, 5-16), the inhibition at 1 µM is under 20%. As for `CC[C@H](C)[C@@H]1NC(=O)[C@H](CCCNC(=N)N)NC(=O)[C@H](CCCNC(=N)N)NC(=O)[C@H](CC(N)=O)NC(=O)[C@H](CO)NC(=O)[C@H](CC(N)=O)NC(=O)[C@@H](NC(=O)[C@@H](N)CCC(N)=O)CSSC[C@@H](C(=O)N[C@@H](Cc2c[nH]c3ccccc23)C(=O)N[C@@H](CCCCN)C(N)=O)NC(=O)[C@H](CCC(N)=O)NC(=O)[C@H](Cc2c[nH]cn2)NC(=O)[C@@H]2CCCN2C(=O)[C@H]([C@@H](C)CC)NC1=O` [Peptide 43, Q + TPN-RQ 3-16(C5S)] (H-QCNSNRRIIPHQCWK-NH2; disulfide 2-13), the inhibition at 1 µM is under 20%.
